{"source": "ChEMBL document CHEMBL1129670", "about": "“Synthesis and structure-activity relationships of N-propyl-N-(4-pyridinyl)-1H-indol-1-amine (besipirdine) and related analogs as potential therapeutic agents for Alzheimer's disease” (J Med Chem, 1996)", "key": {"[1]": {"target": "T1, 5-hydroxytryptamine receptor 1A (Rattus norvegicus, UniProt P19327)", "T1 sequence (P19327 whole entry)": "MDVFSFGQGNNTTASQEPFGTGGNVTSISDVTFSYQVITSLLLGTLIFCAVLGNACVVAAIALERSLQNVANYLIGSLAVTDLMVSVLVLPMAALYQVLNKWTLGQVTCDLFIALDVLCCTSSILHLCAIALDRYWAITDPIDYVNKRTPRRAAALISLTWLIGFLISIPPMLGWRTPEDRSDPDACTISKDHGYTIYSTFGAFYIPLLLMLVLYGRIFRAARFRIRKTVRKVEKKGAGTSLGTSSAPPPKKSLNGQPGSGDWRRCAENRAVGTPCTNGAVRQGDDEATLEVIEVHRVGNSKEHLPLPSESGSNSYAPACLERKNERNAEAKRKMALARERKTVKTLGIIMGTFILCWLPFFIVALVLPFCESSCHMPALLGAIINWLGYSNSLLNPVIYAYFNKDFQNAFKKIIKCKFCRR", "assay": "Inhibitory activity against [3H]DPAT binding to 5-HT1A receptor in rat hippocampus", "assay_type": "tissue-based"}, "[2]": {"target": "Serotonin 2 (5-HT2) receptor (Rattus norvegicus, UniProt P30994+P08909+P14842)", "assay": "Inhibitory activity against [3H]spiroperidol binding to 5-HT2 receptor in rat cortex"}, "[3]": {"target": "T2, Adrenergic receptor alpha-2 (Rattus norvegicus, UniProt P22086+P19328+P22909)", "T2 sequence (P22086 whole entry)": "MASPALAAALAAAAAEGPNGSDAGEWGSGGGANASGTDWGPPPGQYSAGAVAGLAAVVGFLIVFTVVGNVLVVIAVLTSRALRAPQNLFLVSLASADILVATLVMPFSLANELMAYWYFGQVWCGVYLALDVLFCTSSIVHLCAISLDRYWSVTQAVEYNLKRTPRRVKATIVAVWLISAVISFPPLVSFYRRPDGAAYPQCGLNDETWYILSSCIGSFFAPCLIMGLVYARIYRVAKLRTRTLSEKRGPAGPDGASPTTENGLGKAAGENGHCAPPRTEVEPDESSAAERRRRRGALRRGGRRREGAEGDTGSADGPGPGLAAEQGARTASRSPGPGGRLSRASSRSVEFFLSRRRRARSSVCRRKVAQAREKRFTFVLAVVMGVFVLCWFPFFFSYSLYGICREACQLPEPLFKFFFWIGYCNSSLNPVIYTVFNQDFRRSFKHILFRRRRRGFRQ", "T2 sequence (P19328 whole entry)": "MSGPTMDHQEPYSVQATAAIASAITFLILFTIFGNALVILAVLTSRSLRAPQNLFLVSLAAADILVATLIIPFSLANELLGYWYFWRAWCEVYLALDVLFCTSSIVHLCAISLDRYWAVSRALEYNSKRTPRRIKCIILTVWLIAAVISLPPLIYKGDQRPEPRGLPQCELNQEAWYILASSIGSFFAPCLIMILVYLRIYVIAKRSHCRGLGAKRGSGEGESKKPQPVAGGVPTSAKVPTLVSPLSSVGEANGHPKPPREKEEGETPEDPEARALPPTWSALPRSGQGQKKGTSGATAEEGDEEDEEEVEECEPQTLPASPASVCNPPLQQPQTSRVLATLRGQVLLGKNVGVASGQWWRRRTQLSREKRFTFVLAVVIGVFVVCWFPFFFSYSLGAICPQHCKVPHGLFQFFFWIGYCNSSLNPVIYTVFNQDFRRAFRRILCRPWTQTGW", "T2 sequence (P22909 whole entry)": "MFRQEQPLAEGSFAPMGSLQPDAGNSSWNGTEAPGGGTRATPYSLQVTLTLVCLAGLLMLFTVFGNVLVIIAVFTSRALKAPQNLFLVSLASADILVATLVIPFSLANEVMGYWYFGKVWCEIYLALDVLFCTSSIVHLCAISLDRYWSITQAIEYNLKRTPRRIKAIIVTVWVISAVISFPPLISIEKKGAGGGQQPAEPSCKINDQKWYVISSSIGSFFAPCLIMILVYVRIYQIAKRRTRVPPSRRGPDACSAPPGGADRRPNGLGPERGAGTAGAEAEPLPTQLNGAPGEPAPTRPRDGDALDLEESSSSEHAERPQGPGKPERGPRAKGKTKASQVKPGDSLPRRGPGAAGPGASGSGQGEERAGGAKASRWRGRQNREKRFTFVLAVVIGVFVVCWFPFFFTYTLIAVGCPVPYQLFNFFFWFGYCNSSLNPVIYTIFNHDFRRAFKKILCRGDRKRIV", "assay": "Inhibitory activity against [3H]-idazoxan binding to Alpha-2 adrenergic receptor in rat cortex"}, "[4]": {"target": "T2, Adrenergic receptor alpha-2", "assay": "Inhibitory activity against [3H]yohimbine binding to Alpha-2 adrenergic receptor in rat cortex"}, "Mus musculus [5]": {"species": "Mus musculus", "assay": "Antagonistic activity against Scopolamine induced behavioral deficits in mice; 5/6", "assay_type": "functional"}, "[6]": {"target": "T3, Muscarinic acetylcholine receptor M2 (Rattus norvegicus, UniProt P10980)", "T3 sequence (P10980 whole entry)": "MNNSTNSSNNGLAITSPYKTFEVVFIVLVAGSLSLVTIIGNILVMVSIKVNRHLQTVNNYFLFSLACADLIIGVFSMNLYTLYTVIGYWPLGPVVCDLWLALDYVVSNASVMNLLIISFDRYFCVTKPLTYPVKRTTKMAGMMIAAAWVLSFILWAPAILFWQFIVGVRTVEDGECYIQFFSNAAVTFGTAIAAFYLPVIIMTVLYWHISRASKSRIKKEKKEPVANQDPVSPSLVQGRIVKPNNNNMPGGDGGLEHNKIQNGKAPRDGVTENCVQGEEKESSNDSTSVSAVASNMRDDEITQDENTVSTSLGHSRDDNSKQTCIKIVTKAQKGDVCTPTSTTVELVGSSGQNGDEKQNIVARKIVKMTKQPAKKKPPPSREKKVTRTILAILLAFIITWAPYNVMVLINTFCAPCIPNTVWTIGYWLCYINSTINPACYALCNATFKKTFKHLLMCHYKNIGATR", "assay": "Inhibitory activity against [3H]N-methyl-scopolamine binding to Muscarinic acetylcholine receptor M2 in rat cerebellum", "assay_type": "tissue-based"}, "[7]": {"target": "T3, Muscarinic acetylcholine receptor M2", "assay": "Inhibitory activity against [3H]N-methyl-scopolamine in rat Muscarinic acetylcholine receptor M2 cerebellum in the presence GPP(NH)P", "assay_type": "tissue-based"}, "[8]": {"target": "Neuronal acetylcholine receptor", "assay": "Inhibitory activity against [3H]-NMCC binding to nicotinic receptors in rat cortex"}, "Glutamate NMDA receptor [9]": {"target": "Glutamate NMDA receptor", "assay": "Inhibitory activity against [3H]-CPP binding to NMDA receptor in rat cortex"}, "Mu-type opioid receptor": {"target": "Mu-type opioid receptor (Rattus norvegicus, UniProt P33535)", "sequence (P33535 whole entry)": "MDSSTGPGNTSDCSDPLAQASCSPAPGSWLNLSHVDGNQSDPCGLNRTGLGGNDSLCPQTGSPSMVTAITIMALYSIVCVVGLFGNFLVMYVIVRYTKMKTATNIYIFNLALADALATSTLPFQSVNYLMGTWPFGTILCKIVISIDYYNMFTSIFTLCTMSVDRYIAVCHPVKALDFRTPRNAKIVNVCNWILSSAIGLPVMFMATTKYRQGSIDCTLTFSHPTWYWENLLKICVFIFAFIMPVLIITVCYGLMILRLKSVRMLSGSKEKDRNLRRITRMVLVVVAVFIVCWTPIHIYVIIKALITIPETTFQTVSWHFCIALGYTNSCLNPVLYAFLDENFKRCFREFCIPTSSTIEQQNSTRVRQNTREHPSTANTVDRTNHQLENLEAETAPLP", "assay": "Inhibitory activity against [3H]DHM binding to mu opioid receptor in rat whole brain"}, "[10]": {"target": "Kappa-type opioid receptor (Cavia porcellus, UniProt P41144)", "sequence (P41144 whole entry)": "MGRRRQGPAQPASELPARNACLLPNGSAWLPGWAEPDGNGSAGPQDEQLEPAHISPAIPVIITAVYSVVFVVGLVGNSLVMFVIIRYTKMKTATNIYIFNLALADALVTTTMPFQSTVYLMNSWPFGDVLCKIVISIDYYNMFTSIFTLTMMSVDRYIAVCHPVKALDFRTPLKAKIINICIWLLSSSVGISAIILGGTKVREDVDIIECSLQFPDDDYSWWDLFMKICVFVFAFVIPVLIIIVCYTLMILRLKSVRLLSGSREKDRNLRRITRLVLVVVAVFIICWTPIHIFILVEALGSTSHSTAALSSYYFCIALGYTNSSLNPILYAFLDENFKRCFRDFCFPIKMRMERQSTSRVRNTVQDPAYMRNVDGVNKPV", "assay": "Inhibitory activity against [3H]bremazocine binding to kappa opioid receptor in guinea pig cerebellum", "assay_type": "tissue-based"}, "Glutamate NMDA receptor [11]": {"target": "Glutamate NMDA receptor", "assay": "Inhibitory activity against [3H]TCP binding to Phencyclidine receptor in rat cortex"}, "Rattus norvegicus [12]": {"species": "Rattus norvegicus", "assay": "Inhibitory activity against [3H]dopamine uptake in rat striatum", "assay_type": "functional"}, "Rattus norvegicus [13]": {"species": "Rattus norvegicus", "assay": "Inhibitory activity against [3H]norepinephrine (NE) uptake in rat hypothalamus", "assay_type": "functional"}, "[14]": {"target": "Voltage-dependent L-type calcium channel subunit alpha-1C (Rattus norvegicus, UniProt P22002)", "sequence (P22002 whole entry)": "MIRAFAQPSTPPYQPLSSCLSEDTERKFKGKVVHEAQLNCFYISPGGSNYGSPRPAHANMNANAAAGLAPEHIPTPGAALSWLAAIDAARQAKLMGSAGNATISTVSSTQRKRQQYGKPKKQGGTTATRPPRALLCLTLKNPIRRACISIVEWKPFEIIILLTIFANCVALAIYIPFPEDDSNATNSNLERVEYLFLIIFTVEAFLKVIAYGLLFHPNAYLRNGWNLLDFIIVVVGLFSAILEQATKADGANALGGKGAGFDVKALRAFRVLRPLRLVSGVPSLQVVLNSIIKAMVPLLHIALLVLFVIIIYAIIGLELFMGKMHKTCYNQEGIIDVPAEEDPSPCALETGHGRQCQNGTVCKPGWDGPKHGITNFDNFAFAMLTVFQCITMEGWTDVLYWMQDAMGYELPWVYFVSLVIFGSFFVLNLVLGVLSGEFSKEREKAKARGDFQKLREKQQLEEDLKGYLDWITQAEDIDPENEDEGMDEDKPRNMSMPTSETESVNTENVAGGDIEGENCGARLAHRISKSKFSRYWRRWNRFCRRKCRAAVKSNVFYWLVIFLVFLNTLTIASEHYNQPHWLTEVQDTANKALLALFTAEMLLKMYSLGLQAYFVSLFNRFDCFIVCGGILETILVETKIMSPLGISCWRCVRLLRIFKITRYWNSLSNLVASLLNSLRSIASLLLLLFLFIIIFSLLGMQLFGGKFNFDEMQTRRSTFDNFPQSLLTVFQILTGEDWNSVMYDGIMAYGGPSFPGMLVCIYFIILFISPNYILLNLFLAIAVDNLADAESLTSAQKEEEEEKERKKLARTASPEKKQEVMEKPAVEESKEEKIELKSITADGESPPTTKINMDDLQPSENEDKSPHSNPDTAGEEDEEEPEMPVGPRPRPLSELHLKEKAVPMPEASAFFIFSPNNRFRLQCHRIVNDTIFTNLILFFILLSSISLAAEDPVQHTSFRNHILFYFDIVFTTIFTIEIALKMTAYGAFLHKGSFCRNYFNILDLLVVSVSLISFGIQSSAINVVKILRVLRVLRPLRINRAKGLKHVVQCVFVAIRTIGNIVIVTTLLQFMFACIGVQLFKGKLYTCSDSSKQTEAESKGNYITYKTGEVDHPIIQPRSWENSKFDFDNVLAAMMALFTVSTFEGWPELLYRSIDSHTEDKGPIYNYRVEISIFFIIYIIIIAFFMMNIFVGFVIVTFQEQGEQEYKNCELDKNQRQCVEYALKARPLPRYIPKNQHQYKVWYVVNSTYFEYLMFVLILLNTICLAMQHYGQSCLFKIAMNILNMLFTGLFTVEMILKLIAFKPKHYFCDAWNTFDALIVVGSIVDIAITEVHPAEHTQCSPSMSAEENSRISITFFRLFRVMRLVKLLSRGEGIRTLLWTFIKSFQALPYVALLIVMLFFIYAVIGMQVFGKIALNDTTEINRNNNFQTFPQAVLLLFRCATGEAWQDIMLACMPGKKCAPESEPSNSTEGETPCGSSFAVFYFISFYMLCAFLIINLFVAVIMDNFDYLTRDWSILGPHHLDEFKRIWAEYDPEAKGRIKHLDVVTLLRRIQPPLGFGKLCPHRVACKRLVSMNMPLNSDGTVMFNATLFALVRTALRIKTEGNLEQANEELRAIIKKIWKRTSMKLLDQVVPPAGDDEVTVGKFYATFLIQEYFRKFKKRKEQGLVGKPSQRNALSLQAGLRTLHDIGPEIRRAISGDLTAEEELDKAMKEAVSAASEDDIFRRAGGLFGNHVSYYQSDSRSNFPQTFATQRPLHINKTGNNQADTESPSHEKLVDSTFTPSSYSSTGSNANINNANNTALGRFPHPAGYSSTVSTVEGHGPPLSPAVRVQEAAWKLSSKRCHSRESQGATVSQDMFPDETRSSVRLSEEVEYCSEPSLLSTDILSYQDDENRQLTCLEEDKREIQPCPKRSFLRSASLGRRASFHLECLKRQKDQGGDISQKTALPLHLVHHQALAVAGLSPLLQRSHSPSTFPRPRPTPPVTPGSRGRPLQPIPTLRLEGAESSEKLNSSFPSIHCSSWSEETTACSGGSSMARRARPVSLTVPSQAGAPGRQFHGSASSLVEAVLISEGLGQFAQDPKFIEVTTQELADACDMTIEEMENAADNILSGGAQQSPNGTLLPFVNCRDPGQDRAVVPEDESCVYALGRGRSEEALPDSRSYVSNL", "assay": "Inhibition of [3H]nitrendipine binding to [Ca2+] channel of rat heart"}, "Mus musculus [15]": {"species": "Mus musculus", "settings": "dose 0.63 mg/kg; route subcutaneous", "description": "Antagonistic activity against Scopolamine induced behavioral deficits in mice at dose 0.63 mg/kg sc"}}, "data": [{"compound": "CCCN(c1ccncc1)n1ccc2ccccc21", "note": "[BESIPIRDINE]", "values": [{"measurement": "IC50", "setting": "[1]", "value": "< 20000", "unit": "nM"}, {"measurement": "IC50", "setting": "[2]", "value": "> 20000", "unit": "nM"}, {"measurement": "IC50", "setting": "[3]", "value": 470, "unit": "nM"}, {"measurement": "IC50", "setting": "[4]", "value": 250, "unit": "nM"}, {"measurement": "Antagonism", "setting": "Mus musculus [5]", "value": 5}, {"measurement": "IC50", "setting": "[6]", "value": 1000, "unit": "nM"}, {"measurement": "IC50", "setting": "[7]", "value": 650, "unit": "nM"}, {"measurement": "IC50", "setting": "[8]", "value": "> 20000", "unit": "nM"}, {"measurement": "IC50", "setting": "Glutamate NMDA receptor [9]", "value": "> 20000", "unit": "nM"}, {"measurement": "IC50", "setting": "Mu-type opioid receptor", "value": "> 1000", "unit": "nM"}, {"measurement": "IC50", "setting": "[10]", "value": "> 10000", "unit": "nM"}, {"measurement": "IC50", "setting": "Glutamate NMDA receptor [11]", "value": "> 20000", "unit": "nM"}, {"measurement": "IC50", "setting": "Rattus norvegicus [12]", "value": 410, "unit": "nM"}, {"measurement": "IC50", "setting": "Rattus norvegicus [13]", "value": 270, "unit": "nM"}, {"measurement": "IC50", "setting": "[14]", "value": "> 100000", "unit": "nM"}, {"measurement": "Response", "setting": "Mus musculus [15]", "value": 40, "unit": "%"}]}]}
